The source of these data is US20240018146A1, “COMPOSITIONS AND METHODS OF USING THE SAME FOR TREATMENT OF NEURODEGENERATIVE AND MITOCHONDRIAL DISEASE” (MITOKININ, INC., priority 2020, published 2024).

As a reminder, the EC50 is the midpoint of the concentration-response curve. Broadly, the kinetic solubility is the concentration staying in solution when a stock, usually in DMSO, is diluted into the medium.

In data set [1] the test system is HeLa MKYP cells. The data set is described as follows: Human mitophagy assay (HeLa mKeima assay, FACS). The class given is cell-based. The conditions noted are these: for EC50: Homo sapiens, HeLa. The procedure, abridged: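 HeLa cells carrying the pH-sensitive mtKeima tag incubated 16 h with compound at several concentrations, then 1 uM FCCP/oligomycin for 6 h. FACS detects mitochondria in lysosomes through the Keima emission shift, quantified as percentage of cells in mitophagy.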

The test system of data set [2] is HeLa MKYP cells. The data set is described as follows: Cell death measured by DAPI staining, with 1 μM FCCP/oligomycin or no toxin (no FO). It counts as cell-based. Particulars: for E105 death at 8.3 μM (no FO): 8.3 μM compound; for Max cell death at 25 μM compound, 1 uM FO (%) / Cell death at 25 μM (no FO) (%) / E104 death at 25 μM (no FO): 25 μM compound. The method, boiled down:
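HeLa MKYP cells were treated with compounds alongside 1 μM FCCP/oligomycin or no toxin for 6 or 6.5 h. Cell death was scored by DAPI staining, with H2O2 treatment as the death control.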

The nature of data set [3]: Mitotoxicity / Mitotox safety margin (therapeutic window). It counts as cell-based.
A further data set can be described thus: Kinetic solubility. It counts as physicochemical.
The mark [4] stands for this setting: HeLa mKeima assay, read-out: Mitophagy EC50 (HeLa mKeima assay).
[5] abbreviates: mitophagy, 1 μM FCCP/oligomycin, read-out: E100 EC50.
Where [6] appears, read: read-out: Mitophagy induction EC50.
[7] abbreviates: mitophagy, 1 μM FCCP/oligomycin.

The structures appear in SMILES notation. In brackets after ≈: the same amount, converted by molar mass. Read-outs that look alike come from different tables or passages of the source.

On to `FC(F)(F)c1cc2c(N[C@@H]3c4ccccc4CC[C@H]3N3CCOCC3)ncnc2[nH]1` (racemic) [EP-0037821], for which the “E102 max mitophagy, fold over DMSO” value with HeLa MKYP cells [1] (1 μM FCCP/oligomycin) worked out at 9.53 fold over DMSO. Further, the EC50 in the data set with HeLa MKYP cells [1] (setting [4]) turned out to be 0.4 µM. In addition, the EC50 with HeLa MKYP cells [1] (setting [5]) amounted to 0.45 µM. The half-maximal effective concentration (EC50) with HeLa MKYP cells [1] (setting [6]) is 0.38 µM. The “E101 lowest effective dose” value in the data set with HeLa MKYP cells [1] (setting [7]) amounted to 0.30 µM. Besides, in the data set with HeLa MKYP cells [2], the “E105 death at 8.3 μM (no FO)” value worked out at 2.87; the “Max cell death at 25 μM compound, 1 uM FO (%)” value (shortened to “Max cell death … (%)”) stood at 71.62%; the “Cell death at 25 μM (no FO) (%)” value worked out at 41.03%; the “E104 death at 25 μM (no FO)” value was 25.17. For the same compound, in the data set with HeLa MKYP cells [2], the “Highest safe dose (cytotoxicity; no FO; safe means DAPI+ <20%)” value is 13.9 µM, the “E103 max death with 1 μM FO” value was 62.82 and the “Max % death with 1 μM FO” value was found to be 68.5%. Besides, in data set [3], the “Mitotox safety margin (Therapeutic window)” value (“Mitotox safety margin” below) was “++++ (++++ = 30<)”, the “Mito-Safety Index (highest safe dose/EC50)” value (shortened to “Mito-Safety Index”) is listed as 22.05 and the “Highest safe dose (μM) (mitotox or cytotox)” value (“Highest safe dose (μM)” for short) turned out to be 8.3 µM. In the data set “Kinetic solubility”, this compound returned a solubility (kinetic) of 14.1 µM (≈ 5.89 µg/mL).
Consider `c1ccc2c(c1)CC[C@H](N1CCOCC1)[C@H]2Nc1ncnc2[nH]c(C3CC3)cc12` (racemic) [EP-0039677], for which the EC50 with HeLa MKYP cells [1] (setting [4]) is 0.21 µM. The concentration giving a half-maximal response (EC50) with HeLa MKYP cells [1] (setting [6]) is 0.21 µM. In the data set on HeLa MKYP cells [2], the “Max cell death … (%)” value worked out at 10.2%; the “Cell death at 25 μM (no FO) (%)” value is listed as 3.02%; the “Highest safe dose (cytotoxicity; no FO; safe means DAPI+ <20%)” value amounted to 25.0 µM; the “Max % death with 1 μM FO” value is given as 10.2%. Also, in data set [3], the “Mitotox safety margin” value was “++++ (++++ = 30<)”, the “Mito-Safety Index” value turned out to be 13.51 and the “Highest safe dose (μM)” value is 2.8 µM. This compound showed a solubility (kinetic) in the data set “Kinetic solubility” of 1.56 µM (≈ 0.608 µg/mL).
In the case of `FC(F)(F)c1cc2c(N[C@@H]3c4ccccc4CC[C@H]3N3CCOCC3)ncnc2[nH]1` (single isomer, unassigned) [EP-0038099], the “E102 max mitophagy, fold over DMSO” value in the data set on HeLa MKYP cells [1] (1 μM FCCP/oligomycin) stood at 7.78 fold over DMSO. Further, the “Mitophagy EC50 (HeLa mKeima assay) (μM)” value in the data set on HeLa MKYP cells [1] (HeLa mKeima assay) is listed as “Minimal”. Moreover, the “E101 lowest effective dose” value in the data set with HeLa MKYP cells [1] (setting [7]) was 25.00 µM. In the data set on HeLa MKYP cells [2], the “E105 death at 8.3 μM (no FO)” value stood at 2.41; the “Max cell death … (%)” value turned out to be 13.7%; the “Cell death at 25 μM (no FO) (%)” value stood at 4.11%; the “E104 death at 25 μM (no FO)” value amounted to 4.11. In addition, the “E103 max death with 1 μM FO” value with HeLa MKYP cells [2] is listed as 13.71. Also, the solubility (kinetic) in “Kinetic solubility” was 14.1 µM (≈ 5.89 µg/mL).
For the compound `O=C1COCCN1[C@H]1CCc2ccccc2[C@@H]1Nc1ncnc2[nH]c(C(F)(F)F)cc12` (single isomer, unassigned) [EP-0038378], the EC50 in the data set with HeLa MKYP cells [1] (setting [4]) came out at 2.77 µM. In the data set on HeLa MKYP cells [1] (setting [6]), the EC50 is more than 25 µM. For the same compound, in the data set on HeLa MKYP cells [2], the “Max cell death … (%)” value was determined as 15.4%; the “Cell death at 25 μM (no FO) (%)” value is 4.55%; the “Highest safe dose (cytotoxicity; no FO; safe means DAPI+ <20%)” value is 25.0 µM; the “Max % death with 1 μM FO” value was found to be 15.4%. In addition, the solubility (kinetic) in the data set “Kinetic solubility” was determined as 3.02 µM (≈ 1.3 µg/mL).
Turning to `FC(F)(F)c1cc2c(N[C@H]3c4ccccc4CC[C@@H]3N3CCCCC3)ncnc2[nH]1` (single isomer, unassigned) [EP-0038392], the EC50 in the data set on HeLa MKYP cells [1] (setting [4]) was 2.77 µM. Also, the EC50 in the data set on HeLa MKYP cells [1] (setting [6]) is more than 25 µM. Also, in the data set on HeLa MKYP cells [2], the “Max cell death … (%)” value came to 23.2%; the “Cell death at 25 μM (no FO) (%)” value is 3.1%; the “Highest safe dose (cytotoxicity; no FO; safe means DAPI+ <20%)” value came to 25.0 µM; the “Max % death with 1 μM FO” value was 23.2%. This compound had a kinetic solubility in the data set “Kinetic solubility” of 187 µM (≈ 77.7 µg/mL).
`FC1(F)CCN([C@H]2CCc3ccccc3[C@@H]2Nc2ncnc3[nH]c(C(F)(F)F)cc23)CC1` (single isomer, unassigned) [EP-0038393]: in the data set with HeLa MKYP cells [1] (setting [4]), the half-maximal effective concentration (EC50) is 2.43 µM. Moreover, the EC50 in the data set on HeLa MKYP cells [1] (setting [6]) was more than 25 µM. Further, in the data set on HeLa MKYP cells [2], the “Max cell death … (%)” value came out at 17.6%; the “Cell death at 25 μM (no FO) (%)” value is 1.98%; the “Highest safe dose (cytotoxicity; no FO; safe means DAPI+ <20%)” value is 25.0 µM; the “Max % death with 1 μM FO” value is recorded as 17.6%. Further, the kinetic solubility in the data set “Kinetic solubility” was found to be 1 µM (≈ 0.451 µg/mL).
Take `Fc1ccc2c(c1)CC[C@H](N1CCOCC1)[C@H]2Nc1ncnc2[nH]c(C(F)(F)F)cc12` (single isomer, unassigned) [EP-0038503]: the “E102 max mitophagy, fold over DMSO” value with HeLa MKYP cells [1] (1 μM FCCP/oligomycin) was determined as 5.11 fold over DMSO. The EC50 in the data set on HeLa MKYP cells [1] (setting [4]) stood at 0.38 µM. In the data set on HeLa MKYP cells [1] (average ± spread, read-out: E100 EC50 (μM) (average)), the EC50 amounted to 0.48 ± 0.1 µM. The EC50 with HeLa MKYP cells [1] (setting [5]) was determined as 0.58 µM. Further, the EC50 in the data set on HeLa MKYP cells [1] (setting [6]) was found to be 0.48 µM. For the same compound, the “E101 lowest effective dose” value in the data set on HeLa MKYP cells [1] (setting [7]) worked out at 8.33 µM. Moreover, in the data set on HeLa MKYP cells [2], the “Max cell death … (%)” value was 8.15%; the “Cell death at 25 μM (no FO) (%)” value was found to be 2.53%; the “Highest safe dose (cytotoxicity; no FO; safe means DAPI+ <20%)” value is 25.0 µM; the “E103 max death with 1 μM FO” value is on record as 4.37. The “Max % death with 1 μM FO” value in the data set with HeLa MKYP cells [2] was 6.3%. In data set [3], the “Mitotox safety margin” value is listed as “++ (++ = 10 < x < 20)”, the “Mito-Safety Index” value was 17.40 and the “Highest safe dose (μM)” value was 8.3 µM. In data set [3] (FIG. 5-7), the mitotoxicity result is on record as “low mitotoxicity”. In addition, the kinetic solubility in “Kinetic solubility” is on record as 1.56 µM (≈ 0.679 µg/mL).
